The target in the assay is T1, AR (Homo sapiens, UniProt P10275).
T1 construct: endogenous in cells; host or cells: VCaP cells
T1 sequence (P10275 1-920): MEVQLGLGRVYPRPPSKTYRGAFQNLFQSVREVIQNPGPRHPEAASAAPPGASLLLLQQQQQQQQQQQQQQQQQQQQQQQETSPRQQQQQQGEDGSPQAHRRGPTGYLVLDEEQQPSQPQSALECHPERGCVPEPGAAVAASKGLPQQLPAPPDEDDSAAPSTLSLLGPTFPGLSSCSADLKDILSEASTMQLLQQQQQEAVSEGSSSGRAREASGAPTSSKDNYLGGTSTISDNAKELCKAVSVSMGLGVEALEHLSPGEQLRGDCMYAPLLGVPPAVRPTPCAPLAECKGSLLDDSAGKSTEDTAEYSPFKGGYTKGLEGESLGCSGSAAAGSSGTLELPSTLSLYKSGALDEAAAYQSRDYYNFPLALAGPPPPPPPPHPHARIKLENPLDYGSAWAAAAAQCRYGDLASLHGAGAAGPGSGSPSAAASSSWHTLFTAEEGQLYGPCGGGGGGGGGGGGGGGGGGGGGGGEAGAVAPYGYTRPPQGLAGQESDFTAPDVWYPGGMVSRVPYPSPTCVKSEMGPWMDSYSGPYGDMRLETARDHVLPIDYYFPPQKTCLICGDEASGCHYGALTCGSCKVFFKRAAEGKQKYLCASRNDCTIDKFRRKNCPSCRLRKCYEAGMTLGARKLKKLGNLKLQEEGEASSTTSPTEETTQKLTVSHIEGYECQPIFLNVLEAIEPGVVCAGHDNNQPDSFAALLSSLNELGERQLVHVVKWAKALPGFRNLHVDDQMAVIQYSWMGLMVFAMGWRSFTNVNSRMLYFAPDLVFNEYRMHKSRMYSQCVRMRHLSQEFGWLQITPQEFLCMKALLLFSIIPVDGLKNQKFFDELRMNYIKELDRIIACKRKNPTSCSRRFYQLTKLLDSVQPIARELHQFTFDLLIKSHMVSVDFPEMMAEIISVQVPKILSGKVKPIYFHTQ
Put plainly: VCAP AR Degradation Assay. It is filed as cell-based. Particulars: for Y (AR degradation efficiency, % of DMSO control): class symbols *; for DC50: class symbols A-C, read-out: DC50. The procedure, abridged:
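24 h, 37 °C, VCaP (DMEM/8% FBS), 10-pt 1:3 dilutions from 5 μM final top, 0.1% DMSO ctrl. Lysis on ice/4 °C 1 h; total AR by sandwich ELISA, normalized to DMSO. 4PL fit → DC50, EC50, Y (min AR level).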

For the compound `CCc1cc(N2C(=S)N(c3ccc(C#N)c(C(F)(F)F)c3)C(=O)C2(C)C)ccc1OCCN1CCN(C(C)(C)C(=O)Nc2cc(Cl)cc(NC3CCC(=O)NC3=O)c2)CC1` (stereo not shown) [Example 133, N-(3-chloro-5-(2,6-dioxopiperidin-3-ylamino)phenyl)-2-(4-(2-(4-(3-(4-cyano-3-(trifluoromethyl)phenyl)-5,5-dimethyl-4-oxo-2-thioxoimidazolidin-1-yl)-2-ethylphenoxy)ethyl)piperazin-1-yl)-2-methylpropanamide], the “Y (AR degradation efficiency, % of DMSO control)” value was “** (25%<Y<=35%)” and the DC50 (commonly the concentration at which degradation of the target reaches its halfway point) was 100 to 500 nM.

On to `CCc1cc(N2C(=S)N(c3cnc(C#N)c(C(F)(F)F)c3)C(=O)C23CCC3)ccc1OCCN1CCN(CC(=O)Nc2cccc(NC3CCC(=O)NC3=O)c2)C(C)(C)C1` (stereo not shown) [Example 134, 2-(4-(2-(4-(7-(6-cyano-5-(trifluoromethyl)pyridin-3-yl)-8-oxo-6-thioxo-5,7-diazaspiro[3.4]octan-5-yl)-2-ethylphenoxy)ethyl)-2,2-dimethylpiperazin-1-yl)-N-(3-(2,6-dioxopiperidin-3-ylamino)phenyl)acetamide], for which the “Y (AR degradation efficiency, % of DMSO control)” value was “* (0<Y<=25%)” and the DC50 is less than 100 nM.

As to `C[C@@H]1CN(CCOc2ccc(N3C(=S)N(c4ccc(C#N)c(C(F)(F)F)c4)C(=O)C3(C)C)cc2CCF)CCN1CC(=O)Nc1cc(Cl)cc(NC2CCC(=O)NC2=O)c1` (stereo partly drawn) [Example 135, N-(3-chloro-5-(2,6-dioxopiperidin-3-ylamino)phenyl)-2-((R)-4-(2-(4-(3-(4-cyano-3-(trifluoromethyl)phenyl)-5,5-dimethyl-4-oxo-2-thioxoimidazolidin-1-yl)-2-(2-fluoroethyl)phenoxy)ethyl)-2-methylpiperazin-1-yl)acetamide], the “Y (AR degradation efficiency, % of DMSO control)” value was “* (0<Y<=25%)” and the DC50 was less than 100 nM.

As to `CC1(C)C(=O)N(c2ccc(C#N)c(C(F)(F)F)c2)C(=S)N1c1ccc(OCCN2CCN(CC(=O)Nc3cc(Cl)cc(NC4CCC(=O)NC4=O)c3)CC2)c(CCF)c1` (stereo not shown) [Example 136, N-(3-chloro-5-(2,6-dioxopiperidin-3-ylamino)phenyl)-2-(4-(2-(4-(3-(4-cyano-3-(trifluoromethyl)phenyl)-5,5-dimethyl-4-oxo-2-thioxoimidazolidin-1-yl)-2-(2-fluoroethyl)phenoxy)ethyl)piperazin-1-yl)acetamide], the “Y (AR degradation efficiency, % of DMSO control)” value is recorded as “* (0<Y<=25%)” and the DC50 was less than 100 nM.

Turning to `CCc1cc(N2C(=S)N(c3cnc(C#N)c(C(F)(F)F)c3)C(=O)C2(C)C)ccc1OCCN1CCN(CC(=O)Nc2cccc(N[C@H]3CCC(=O)NC3=O)c2)[C@H](C)C1` [Example 137, 2-((R)-4-(2-(4-(3-(6-cyano-5-(trifluoromethyl)pyridin-3-yl)-5,5-dimethyl-4-oxo-2-thioxoimidazolidin-1-yl)-2-ethylphenoxy)ethyl)-2-methylpiperazin-1-yl)-N-(3-((S)-2,6-dioxopiperidin-3-ylamino)phenyl)acetamide], the “Y (AR degradation efficiency, % of DMSO control)” value was “* (0<Y<=25%)” and the DC50 is less than 100 nM.

Regarding `CCc1cc(N2C(=S)N(c3cnc(C#N)c(C(F)(F)F)c3)C(=O)C2(C)C)ccc1OCCN1CCN(CC(=O)Nc2cccc(N[C@@H]3CCC(=O)NC3=O)c2)[C@H](C)C1` [Example 138, 2-((R)-4-(2-(4-(3-(6-cyano-5-(trifluoromethyl)pyridin-3-yl)-5,5-dimethyl-4-oxo-2-thioxoimidazolidin-1-yl)-2-ethylphenoxy)ethyl)-2-methylpiperazin-1-yl)-N-(3-((R)-2,6-dioxopiperidin-3-ylamino)phenyl)acetamide], the “Y (AR degradation efficiency, % of DMSO control)” value is given as “* (0<Y<=25%)” and the DC50 is less than 100 nM.

Take `CCc1cc(N2C(=S)N(c3ccc(C#N)c(C(F)(F)F)c3)C(=O)C2(C)C)ccc1OCCN1CCN(C2(C(=O)Nc3cccc(NC4CCC(=O)NC4=O)c3)CC2)CC1` (stereo not shown) [Example 139, 1-(4-(2-(4-(3-(4-cyano-3-(trifluoromethyl)phenyl)-5,5-dimethyl-4-oxo-2-thioxoimidazolidin-1-yl)-2-ethylphenoxy)ethyl)piperazin-1-yl)-N-(3-(2,6-dioxopiperidin-3-ylamino)phenyl)cyclopropanecarboxamide]: the “Y (AR degradation efficiency, % of DMSO control)” value was “* (0<Y<=25%)” and the DC50 was less than 100 nM.

Consider `C[C@@H]1CN(CCOc2ccc(N3C(=S)N(c4cnc(C#N)c(C(F)(F)F)c4)C(=O)C3(C)C)cc2CCF)CCN1CC(=O)Nc1cc(Cl)cc(NC2CCC(=O)NC2=O)c1` (stereo partly drawn) [Example 140, N-(3-chloro-5-(2,6-dioxopiperidin-3-ylamino)phenyl)-2-((R)-4-(2-(4-(3-(6-cyano-5-(trifluoromethyl)pyridin-3-yl)-5,5-dimethyl-4-oxo-2-thioxoimidazolidin-1-yl)-2-(2-fluoroethyl)phenoxy)ethyl)-2-methylpiperazin-1-yl)acetamide], for which the “Y (AR degradation efficiency, % of DMSO control)” value is “* (0<Y<=25%)” and the DC50 was less than 100 nM.

On to `CC1(C)C(=O)N(c2ccc(C#N)c(C(F)(F)F)c2)C(=S)N1c1ccc(OCCN2CCN(CC(=O)Nc3cc(NC4CCC(=O)NC4=O)ccc3F)CC2)c(CCF)c1` (stereo not shown) [Example 141, 2-(4-(2-(4-(3-(4-cyano-3-(trifluoromethyl)phenyl)-5,5-dimethyl-4-oxo-2-thioxoimidazolidin-1-yl)-2-(2-fluoroethyl)phenoxy)ethyl)piperazin-1-yl)-N-(5-(2,6-dioxopiperidin-3-ylamino)-2-fluorophenyl)acetamide], for which the “Y (AR degradation efficiency, % of DMSO control)” value is recorded as “* (0<Y<=25%)” and the DC50 is less than 100 nM.

On to `C[C@@H]1CN(CCOc2ccc(N3C(=S)N(c4cnc(C#N)c(C(F)(F)F)c4)C(=O)C34CCC4)cc2CCF)CCN1CC(=O)Nc1cc(Cl)cc(NC2CCC(=O)NC2=O)c1` (stereo partly drawn) [Example 142, N-(3-chloro-5-(2,6-dioxopiperidin-3-ylamino)phenyl)-2-((R)-4-(2-(4-(7-(6-cyano-5-(trifluoromethyl)pyridin-3-yl)-8-oxo-6-thioxo-5,7-diazaspiro[3.4]octan-5-yl)-2-(2-fluoroethyl)phenoxy)ethyl)-2-methylpiperazin-1-yl)acetamide], for which the “Y (AR degradation efficiency, % of DMSO control)” value is recorded as “* (0<Y<=25%)” and the DC50 was less than 100 nM.

Turning to `C[C@@H]1CN(CCOc2ccc(N3C(=S)N(c4ccc(C#N)c(C(F)(F)F)c4)C(=O)C34CCC4)cc2CCF)CCN1CC(=O)Nc1cc(Cl)cc(NC2CCC(=O)NC2=O)c1` (stereo partly drawn) [Example 143, N-(3-chloro-5-(2,6-dioxopiperidin-3-ylamino)phenyl)-2-((R)-4-(2-(4-(7-(4-cyano-3-(trifluoromethyl)phenyl)-8-oxo-6-thioxo-5,7-diazaspiro[3.4]octan-5-yl)-2-(2-fluoroethyl)phenoxy)ethyl)-2-methylpiperazin-1-yl)acetamide], the “Y (AR degradation efficiency, % of DMSO control)” value was “* (0<Y<=25%)” and the DC50 was less than 100 nM.

Regarding `CCc1cc(N2C(=S)N(c3cnc(C#N)c(C(F)(F)F)c3)C(=O)C2(C)C)ccc1OCCN1CCN(CC(=O)Nc2cc(Cl)cc(NC3CCC(=O)NC3=O)c2)[C@H](C)C1` (stereo partly drawn) [Example 144, N-(3-chloro-5-(2,6-dioxopiperidin-3-ylamino)phenyl)-2-((R)-4-(2-(4-(3-(6-cyano-5-(trifluoromethyl)pyridin-3-yl)-5,5-dimethyl-4-oxo-2-thioxoimidazolidin-1-yl)-2-ethylphenoxy)ethyl)-2-methylpiperazin-1-yl)acetamide], the “Y (AR degradation efficiency, % of DMSO control)” value is on record as “* (0<Y<=25%)” and the DC50 is less than 100 nM.

As for `CCc1cc(N2C(=S)N(c3cnc(C#N)c(C(F)(F)F)c3)C(=O)C2(C)C)ccc1OCCN1CCN(CC(=O)Nc2cc(Cl)cc(NC3CCC(=O)NC3=O)c2)[C@H](C)C1` (stereo partly drawn) [Example 145, N-(3-chloro-5-(2,6-dioxopiperidin-3-ylamino)phenyl)-2-((R)-4-(2-(4-(3-(6-cyano-5-(trifluoromethyl)pyridin-3-yl)-5,5-dimethyl-4-oxo-2-thioxoimidazolidin-1-yl)-2-ethylphenoxy)ethyl)-2-methylpiperazin-1-yl)acetamide], the “Y (AR degradation efficiency, % of DMSO control)” value was “* (0<Y<=25%)” and the DC50 was less than 100 nM.

Consider `CCc1cc(N2C(=S)N(c3ccc(C#N)c(C(F)(F)F)c3)C(=O)C2(C)C)ccc1OCCN1C[C@H](C)N(CC(=O)Nc2cccc(NC3CCC(=O)NC3=O)c2)[C@@H](C)C1` (stereo partly drawn) [Example 146, 2-((2S,6S)-4-(2-(4-(3-(4-cyano-3-(trifluoromethyl)phenyl)-5,5-dimethyl-4-oxo-2-thioxoimidazolidin-1-yl)-2-ethylphenoxy)ethyl)-2,6-dimethylpiperazin-1-yl)-N-(3-(2,6-dioxopiperidin-3-ylamino)phenyl)acetamide], for which the “Y (AR degradation efficiency, % of DMSO control)” value was “* (0<Y<=25%)” and the DC50 was less than 100 nM.
